In PubChem BioAssay (NCI):
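In this assay, cells in 96-well plates receive the compound at five concentrations for 48 hours. Endpoints are linearly interpolated between the surrounding concentrations. At the GI50, growth is halved. TGI is the concentration that stops growth completely.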

Key:
Assay in all cases: growth of human tumour cells (NCI), 48 h
[1] = tested on: 786-0 renal
[2] = tested on: A498 renal
[3] = tested on: A549 NSCLC
[4] = tested on: ACHN renal
[5] = tested on: BT-549 breast
[6] = tested on: CAKI-1 renal
[7] = tested on: COLO 205 colon
[8] = tested on: DU-145 prostate
[9] = tested on: EKVX NSCLC
[10] = tested on: HCC-2998 colon
[11] = tested on: HCT-116 colon
[12] = tested on: HCT-15 colon
[13] = tested on: HL-60(TB) leukemia
[14] = tested on: HOP-62 NSCLC
[15] = tested on: HOP-92 NSCLC
[16] = tested on: HS 578T breast
[17] = tested on: HT29 colon
[18] = tested on: IGROV1 ovarian
[19] = tested on: K-562 leukemia
[20] = tested on: KM12 colon
[21] = tested on: LOX IMVI melanoma
[22] = tested on: MALME-3M melanoma
[23] = tested on: MCF7 breast
[24] = tested on: MDA-MB-231 breast
[25] = tested on: MDA-MB-435
[26] = tested on: MOLT-4 leukemia
[27] = tested on: NCI-H226 lung
[28] = tested on: NCI-H23 lung
[29] = tested on: NCI-H460 lung
[30] = tested on: NCI-H522 lung
[31] = tested on: NCI/ADR-RES ovarian
[32] = tested on: OVCAR-3 ovarian
[33] = tested on: OVCAR-4 ovarian
[34] = tested on: OVCAR-5 ovarian
[35] = tested on: OVCAR-8 ovarian
[36] = tested on: PC-3 prostate
[37] = tested on: RPMI-8226 leukemia
[38] = tested on: RXF 393 renal
[39] = tested on: SF-268 CNS
[40] = tested on: SF-295 CNS
[41] = tested on: SF-539 CNS
[42] = tested on: SK-MEL-2 melanoma
[43] = tested on: SK-MEL-28 melanoma
[44] = tested on: SK-MEL-5 melanoma
[45] = tested on: SK-OV-3 ovarian
[46] = tested on: SN12C renal
[47] = tested on: SNB-19 CNS
[48] = tested on: SNB-75 CNS
[49] = tested on: SR leukemia
[50] = tested on: SW-620 colon
[51] = tested on: T-47D breast
[52] = tested on: TK-10 renal
[53] = tested on: U251 CNS
[54] = tested on: UACC-257 melanoma
[55] = tested on: UACC-62 melanoma
[56] = tested on: UO-31 renal

COc1cc(OC)cc(-c2cncn2-c2ccc(-c3nc4cc(OC)c(OC)c(OC)c4s3)cc2)c1 was tested, and the GI50 [1] was 10.3 µM, the TGI [1] was over 100 µM and the GI50 [2] was over 100 µM. The TGI [2] was over 100 µM, the GI50 [3] was 5.59 µM and the TGI [3] was over 100 µM. The GI50 [4] was 11.5 µM, the TGI [4] was over 100 µM and the GI50 [5] was 6.71 µM. The TGI [5] was over 100 µM, the GI50 [6] was 3.79 µM and the TGI [6] was over 100 µM. It also gave a GI50 [7] of 3.85 µM, a TGI [7] of over 100 µM and a GI50 [8] of 31.1 µM. It also gave a TGI [8] of over 100 µM, a GI50 [9] of 1.87 µM and a TGI [9] of over 100 µM. It also gave a GI50 [10] of over 100 µM, a TGI [10] of over 100 µM and a GI50 [11] of 3.76 µM. For the same molecule, the TGI [11] was over 100 µM, the GI50 [12] was 5.72 µM and the TGI [12] was over 100 µM. For the same molecule, the GI50 [13] was 2.43 µM, the TGI [13] was over 100 µM and the GI50 [14] was 26.4 µM. It also gave a TGI [14] of over 100 µM, a GI50 [15] of over 100 µM and a TGI [15] of over 100 µM. For the same molecule, the GI50 [16] was 20.9 µM, the TGI [16] was over 100 µM and the GI50 [17] was 8.33 µM. For the same molecule, the TGI [17] was over 100 µM, the GI50 [18] was 9.6 µM and the TGI [18] was over 100 µM. It also gave a GI50 [19] of 3.57 µM, a TGI [19] of over 100 µM and a GI50 [20] of 5.54 µM. It also gave a TGI [20] of over 100 µM, a GI50 [21] of 6.93 µM and a TGI [21] of over 100 µM. For the same molecule, the GI50 [22] was 9.59 µM, the TGI [22] was 75.1 µM and the GI50 [23] was 4.02 µM. It also gave a TGI [23] of over 100 µM, a GI50 [24] of 19.2 µM and a TGI [24] of over 100 µM. It also gave a GI50 [25] of 6.07 µM, a TGI [25] of over 100 µM and a GI50 [26] of 4.1 µM. It also gave a TGI [26] of over 100 µM, a GI50 [27] of 21.7 µM and a TGI [27] of over 100 µM. The GI50 [28] was 9.56 µM, the TGI [28] was over 100 µM and the GI50 [29] was 7.46 µM. It also gave a TGI [29] of over 100 µM, a GI50 [30] of 11.8 µM and a TGI [30] of over 100 µM. It also gave a GI50 [31] of 11 µM, a TGI [31] of over 100 µM and a GI50 [32] of 6.07 µM. The TGI [32] was 26.7 µM, the GI50 [33] was 6.67 µM and the TGI [33] was over 100 µM. The GI50 [34] was over 100 µM, the TGI [34] was over 100 µM and the GI50 [35] was 13.4 µM. The TGI [35] was over 100 µM, the GI50 [36] was 3.17 µM and the TGI [36] was over 100 µM. It also gave a GI50 [37] of 2.9 µM, a TGI [37] of over 100 µM and a GI50 [38] of 30.2 µM. The TGI [38] was over 100 µM, the GI50 [39] was 22.1 µM and the TGI [39] was over 100 µM. It also gave a GI50 [40] of 3.64 µM, a TGI [40] of 52.9 µM and a GI50 [41] of 22 µM. The TGI [41] was over 100 µM, the GI50 [42] was 6.16 µM and the TGI [42] was over 100 µM. It also gave a GI50 [43] of 31.6 µM, a TGI [43] of over 100 µM and a GI50 [44] of 2.85 µM. It also gave a TGI [44] of over 100 µM, a GI50 [45] of 49.9 µM and a TGI [45] of over 100 µM. The GI50 [46] was 31.9 µM, the TGI [46] was over 100 µM and the GI50 [47] was 19.7 µM. It also gave a TGI [47] of over 100 µM, a GI50 [48] of 15 µM and a TGI [48] of 42.7 µM. It also gave a GI50 [49] of 7.14 µM, a TGI [49] of over 100 µM and a GI50 [50] of 13.7 µM. It also gave a TGI [50] of over 100 µM, a GI50 [51] of 4.74 µM and a TGI [51] of over 100 µM. The GI50 [52] was 26.4 µM, the TGI [52] was over 100 µM and the GI50 [53] was 5.44 µM. For the same molecule, the TGI [53] was over 100 µM, the GI50 [54] was 20.5 µM and the TGI [54] was over 100 µM. The GI50 [55] was 13.8 µM, the TGI [55] was over 100 µM and the GI50 [56] was 1.94 µM. For the same molecule, the TGI [56] was 58.9 µM.
